Laboratory results from patent US10968183B2, “Small molecule FIEL1 inhibitor in inflammatory and fibrotic lung injury” (UNIVERSITY OF PITTSBURGH—OF THE COMMONWEALTH SYSTEM OF …, priority 2015, dated 2021).
Entries after “also recorded” stand apart in the source; their conditions may differ.

What was measured:
JAK/STAT pathway = test: JAK/STAT protein immunoblotting in HCT8 cells exposed to DSS or IFNγ; assay type: cell-based
Procedure: HCT8 cells were pretreated with BC-1485 at different concentrations for 16 h before exposed to DSS (2%, 16 h) or IFNγ (10 ng/ml, 1 h). Cells were collected and assayed for protein immunoblotting.

FIEL1 = target: T1, FIEL1 (Mus musculus, UniProt Q8CHG5); test: PIAS4 protein immunoblot in MLE cells exposed to compounds; assay type: cell-based, murine; settings: 18 h, FIG. 7D
T1 construct: endogenous in cells; host or cells: MLE (murine lung epithelial) cells
T1 sequence (Q8CHG5 1-789): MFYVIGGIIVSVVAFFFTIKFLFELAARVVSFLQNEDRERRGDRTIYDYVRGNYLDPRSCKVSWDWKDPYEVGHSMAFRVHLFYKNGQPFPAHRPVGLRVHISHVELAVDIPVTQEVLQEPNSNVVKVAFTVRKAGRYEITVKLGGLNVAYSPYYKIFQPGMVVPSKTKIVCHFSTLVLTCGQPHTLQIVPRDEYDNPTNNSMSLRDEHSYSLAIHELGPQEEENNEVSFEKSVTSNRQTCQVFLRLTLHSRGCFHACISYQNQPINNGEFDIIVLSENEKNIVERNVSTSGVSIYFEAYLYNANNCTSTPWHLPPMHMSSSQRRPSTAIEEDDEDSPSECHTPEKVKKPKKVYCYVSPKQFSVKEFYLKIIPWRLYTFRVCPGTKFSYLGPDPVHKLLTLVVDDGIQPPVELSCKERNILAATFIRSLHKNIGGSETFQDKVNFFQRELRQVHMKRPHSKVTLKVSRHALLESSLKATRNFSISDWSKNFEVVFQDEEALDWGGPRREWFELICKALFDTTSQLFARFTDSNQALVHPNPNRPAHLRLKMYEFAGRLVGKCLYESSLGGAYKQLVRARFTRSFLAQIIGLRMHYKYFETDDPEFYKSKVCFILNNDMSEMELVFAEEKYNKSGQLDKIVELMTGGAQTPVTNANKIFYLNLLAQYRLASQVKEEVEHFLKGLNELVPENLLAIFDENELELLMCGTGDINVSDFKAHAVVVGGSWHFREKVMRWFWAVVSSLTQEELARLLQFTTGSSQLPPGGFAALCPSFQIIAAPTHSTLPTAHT
Procedure: FIG. 7A. […] FIG. 7B. Structures of the BC-1480 backbone and lead compound BC-1485. FIG. 7C. FIEL1 protein was HIS-purified from FIEL1 expression in 293T cells using cobalt beads. Beads were then extensively washed prior to exposure to BC-1480 or BC-1485 at different concentrations (10^−4 to 100 μM). Purified PIAS4 protein was then incubated with drug-bound FIEL1 beads overnight. Beads were washed, and proteins were eluted and resolved on SDS-PAGE. The relative amounts of PIAS4 detected in the pull-downs was normalized to loading and quantified (n=2). FIG. 7D. MLE cells were exposed to BC-1480 or BC-1485 at various concentrations for 18 h. Cells were then collected and immunoblotted. FIGS. 7E-J. C57BL/6J mice were administered with bleomycin (0.05 U) for 7-21 days. Compounds BC-1480 and BC-1485 were given to mice through drinking water with an estimated dose of 5 mg/kg/d. Mice were euthanized, and lungs were lavaged with saline, harvested, and then homogenized. Lavage proteins, CXCL1, and total cell count were measured in FIGS. 7E-G. H. Survival studies of mice that were given bleomycin and compound treatments. Mice were carefully monitored over time; moribund, preterminal animals were immediately euthanized and recorded as deceased. […] Hydroxyproline contents were measured in lungs from 7, 14, and 21d after bleomycin challenge. […]

[1] = 16 h pretreatment, then DSS 2% 16 h or IFNγ 10 ng/ml 1 h

Compound: CC(NC(=O)c1ccc(NS(=O)(=O)c2ccc3[nH]c(=O)[nH]c3c2)cc1)C(=O)N(C)C (stereo not drawn) [BC-1485]
- JAK/STAT pathway signaling (JAK/STAT pathway): inhibits the signaling transduction; also recorded: inhibits JAK/STAT pathway
- JAK1 protein level (JAK/STAT pathway; [1]): effectively decreases
- JAK2 protein level (JAK/STAT pathway; [1]): effectively decreases
- p-Stat1 protein level (JAK/STAT pathway; [1]): effectively decreases
- p-Stat3 protein level (JAK/STAT pathway; [1]): effectively decreases
- activity in increasing PIAS4 protein levels compared to BC-1480 (FIEL1): > 100 fold
